These results are taken from publication PMC8672371 (Biochemistry, 2021).

SMILES strings stand for the structures. Changes are numbered by the printed parent chain.

The target in assay [1] is T1, RnVip (Rattus norvegicus, UniProt O70600, K317A).
T1 sequence (O70600 1-360 K317A): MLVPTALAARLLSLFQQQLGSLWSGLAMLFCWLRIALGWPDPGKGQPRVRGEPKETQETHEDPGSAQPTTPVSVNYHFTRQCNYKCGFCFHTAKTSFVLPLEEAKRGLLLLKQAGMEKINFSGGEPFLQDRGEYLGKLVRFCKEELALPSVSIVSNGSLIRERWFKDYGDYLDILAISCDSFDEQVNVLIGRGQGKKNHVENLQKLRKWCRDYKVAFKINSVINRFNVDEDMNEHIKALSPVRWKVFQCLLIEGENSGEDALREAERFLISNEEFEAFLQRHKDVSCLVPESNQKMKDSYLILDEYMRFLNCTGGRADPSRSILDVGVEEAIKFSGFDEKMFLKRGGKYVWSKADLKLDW
In words: ddhCTP formation. The format is biochemical. To be noted: SAM, dithionite.

Assay [2] addresses T2, RnVip (Rattus norvegicus, UniProt O70600, H77A).
T2 sequence (O70600 1-360 H77A): T1 sequence (O70600 1-360 K317A) with H77A, A317K
Briefly: ddhCTP formation. Type of assay: biochemical. To be noted: SAM, dithionite.

Assay [3] deals with MlVip (Methanofollis liminatans, UniProt J0S9F5). In words: ddhNTP product by LC-MS. To be noted: SAM, dithionite; labelled compound (deuCTP). The format is biochemical.
The target in assay [4] is NvVip (Nematostella vectensis, UniProt A7RNF3). In words: X-ray crystal structure. Type of assay: binding. The conditions noted are these: 1.42 Å, [4Fe-4S], anaerobic, active site.
Assay [5] deals with TvVip (Trichoderma virens, UniProt G9MQB8). In words: X-ray crystal structure. The format is binding. The conditions noted are these: 3.2 Å; complex with SAM; active site.

`Nc1ccn([C@@H]2O[C@H](COP(=O)(O)OP(=O)(O)OP(=O)(O)O)[C@@H](O)[C@H]2O)c(=O)n1` [CTP]: the ddhCTP formation entry in assay [1] was “we generated a lysine to alanine variant in RnVip (K317A”; in assay [2], “We generated the RnVip variant H77A and the MmVip variant H79A”. Further, the “ddhNTP product by LC-MS; deu5'-dA formation” value in assay [3] is given as “only deuCTP was converted to the respective ddhNTP product by MlVip”. Also, in assay [4] (complex with SAM), the X-ray crystal structure entry was “omit maps show strong density for CTP in the catalytic site”.

Consider `C[S+](CC[C@H](N)C(=O)O)C[C@H]1O[C@@H](n2cnc3c(N)ncnc32)[C@H](O)[C@@H]1O` (stereo partly drawn) [SAM], for which, in assay [4] (complex with CTP), the X-ray crystal structure entry is “The asymmetric unit of NvVip contains one protein chain, a 4Fe-4S cluster, CTP, and SAM”.

Consider `O=c1ccn([C@@H]2O[C@H](COP(=O)(O)OP(=O)(O)OP(=O)(O)O)[C@@H](O)[C@H]2O)c(=O)[nH]1` [UTP], for which, in assay [5], the X-ray crystal structure entry is “Crystals of TvVip bound to SAM and UTP exhibited diffraction”.
